Tested on: B16-F1 mouse melanoma cells
Assay: B16 F1 melanoma cell based assay for melanogenesis (melanin content in media)
Settings: for Melanin (% Control) Alone: 72 hours, absorbance at 530 nm, lower = more inhibition
Description: The ability to inhibit melanin production was assessed using B16 cells, a mouse melanoma cell line.
B16-F1 mouse melanoma cells (obtained from American Type Culture Collection, MD, USA) were maintained in 75 cm^2 culture flasks in RPMI 1640 medium supplemented with L-glutamine (4 mM) and 10% fetal bovine serum (FBS) at 37° C. in a water-saturated, 5% CO2 in air atmosphere. Sub-confluent B16 cells were seeded in 96 well microtiter plates at a density of 5×10^3 cells/well in 200 μl of DMEM containing 10% FBS and 1% penicillin/streptomycin without phenol red at 37° C. under 5% CO2. After 24 hours, the media was replaced with fresh DMEM media containing various compounds at designated concentrations. Cells were incubated for 72 hours at which time melanin was visible in the control well (dark color) where no testing compounds were added.
The amount of melanin produced for each well was quantified by assessing melanin released into the culture media. The pigment containing media from each well was transferred to a clean 96 well plate and the melanin content was quantified by reading the absorbance at 530 nm. Melanin content in each well was calculated as a percent of the control where cells were maintained in DMEM medium or solvent control.
Melanin content in the media was expressed as percent of control, therefore the lower the value is, the more inhibition resulted from the tested compounds.

Compound: CC(O)C(=O)O (racemic) [DL-lactic acid]
- inhibitory effects on melanin production (B16 cell assay, dose-dependent): strong inhibitory effects
- Melanin (% Control) Alone (co-active alone at 2 mM): 103.8 ± 20.5 % Control
- Melanin (% Control) Alone (co-active alone at 5 mM): 98 ± 19.3 % Control
- Melanin (% Control) Alone (co-active alone at 10 mM): 79 ± 16.8 % Control
- Melanin (% Control) Alone (co-active alone at 15 mM): 33.5 ± 7.9 % Control

Compound: N[C@@H](Cc1ccccc1)C(=O)O [L-phenylalanine]
- Melanin (% Control) Alone (co-active alone at 2 mM): 84.9 ± 16.9 % Control
- Melanin (% Control) Alone (co-active alone at 5 mM): 48.3 ± 10 % Control
- Melanin (% Control) Alone (co-active alone at 10 mM): 10 ± 2.7 % Control
- Melanin (% Control) Alone (co-active alone at 15 mM): 49.7 ± 9.9 % Control

Compound: NC(=O)c1cccnc1 [Niacinamide]
- Melanin (% Control) Alone (co-active alone at 2 mM): 94.8 ± 19 % Control
- Melanin (% Control) Alone (co-active alone at 5 mM): 83.9 ± 16.7 % Control
- Melanin (% Control) Alone (co-active alone at 10 mM): 66.1 ± 13 % Control
- Melanin (% Control) Alone (co-active alone at 15 mM): 50.3 ± 10.2 % Control

Reference: patent publication US20020106384A1, “Cosmetic compositions and methods for lightening the skin” (priority 1999, published 2002)
